According to paper PMC10459044, “Anticholinesterase and Serotoninergic Evaluation of Benzimidazole–Carboxamides as Potential Multifunctional Agents for the Treatment of Alzheimer’s Disease” (Pharmaceutics, 2023):
“Also recorded” adds a separate entry of the source. Read-outs that look alike come from different tables or passages of the source.

Experiments:
human AChE = target: T1, human AChE (Homo sapiens, UniProt P22303); assay: biochemical; format: biochemical; settings: for Type of Inhibition / thermodynamic cooperativity factor α: human AChE; for Type of Inhibition: Lineweaver–Burk plots; for thermodynamic cooperativity factor α: mixed inhibition model
T1 construct: human erythrocyte AChE (Biomed, Auckland, New Zealand); purchased Biomed, Auckland, New Zealand; host or cells: human erythrocytes (natural source)
T1 sequence (P22303 32-617 isoform P22303-2 limits assumed): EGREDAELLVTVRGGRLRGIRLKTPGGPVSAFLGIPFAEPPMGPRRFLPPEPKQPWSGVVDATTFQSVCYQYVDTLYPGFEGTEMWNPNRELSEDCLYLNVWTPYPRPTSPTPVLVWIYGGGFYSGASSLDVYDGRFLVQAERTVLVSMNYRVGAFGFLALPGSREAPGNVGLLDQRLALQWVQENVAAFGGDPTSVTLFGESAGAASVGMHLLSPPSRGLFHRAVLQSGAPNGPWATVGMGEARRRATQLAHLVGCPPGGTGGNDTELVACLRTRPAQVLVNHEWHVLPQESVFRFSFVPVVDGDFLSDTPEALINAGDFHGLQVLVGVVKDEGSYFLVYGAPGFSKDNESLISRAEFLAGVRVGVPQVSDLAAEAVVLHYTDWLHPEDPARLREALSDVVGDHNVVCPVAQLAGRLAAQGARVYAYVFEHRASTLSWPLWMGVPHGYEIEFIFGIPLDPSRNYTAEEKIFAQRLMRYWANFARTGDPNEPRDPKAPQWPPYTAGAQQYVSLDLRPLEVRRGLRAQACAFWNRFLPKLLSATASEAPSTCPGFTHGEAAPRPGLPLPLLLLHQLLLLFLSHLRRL
Description: (§1) The biochemical analysis of the inhibitory ability of the drugs against AChE and BChE was performed using a microplate modification of the Ellman method. The following reagents were used: 5,5′-dithio-bis-2-nitrobenzoic acid (DTNB, Sigma-Aldrich, St. Louis, MO, USA), acetylthiocholine (ATCh, Sigma-Aldrich), butyrylthiocholine (BTCh, Sigma-Aldrich), human erythrocyte AChE (Biomed, Auckland, New Zealand), human plasma BChE (Mechnikov Scientific Research Institute of Vaccines and Serums, St. Petersburg, Russia), phosphate-buffered saline (PBS; pH 7.2; Biolot, […]) and distilled water (pH 5.97, Biolot).
(§2) AChE and BChE were dissolved in PBS to obtain solutions of 1 mg/mL. Due to its high activity, human BChE was used at a 1:30 dilution. Solutions of the studied compounds were prepared with serial dilutions; their concentration in the reaction mixture was in a range from 0 to 300 μM. Double-distilled water, ethanol and dimethyl sulfoxide (DMSO, up to 15% of the total solvent volume) were used as solvents. When using DMSO or ethanol, an additional control was performed to assess the effect of the solvent itself. Protein (AChE of BChE) was incubated for 5 min at 37 °C and then the coloring solution was added, which contained a 2 mM freshly prepared DTNB solution and the substrate (ATCh/BTCh) in the concentration range of 200–800 μM. The kinetics were recorded for 15 min at 37 °C at a wavelength of 405 nm. Activity (μM × min^−1) was calculated using the molar extinction coefficient 0.01415 μmol^−1 × cm^−1: (V/ε × l × v) × (ΔE/Δt), where V is the volume of the analyzed mixture (μL); v is the volume of the enzyme solution (μL); ΔE/Δt is the change in extinction in 1 min; l is the thickness of the absorbing layer (cm); and ε is the coefficient of molar extinction of […]. Each measurement was repeated three times.
(§3) The type of inhibition was evaluated using Lineweaver–Burk plots. The dissociation constant of the enzyme-inhibitor complex (Ki), the maximum rate (Vmax) and thermodynamic cooperativity factor α were calculated using the Graphpad Prism 8.0 program (GraphPad Software Inc., San Diego, CA, USA) according to the model “enzymatic kinetics-inhibition—type of inhibition”.

human BChE = target: T2, human BChE (Homo sapiens, UniProt P06276); assay: Inhibition of human plasma BChE, microplate Ellman method; format: biochemical; settings: for Type of Inhibition: human BChE, Lineweaver–Burk plots; for Ki: human plasma BChE (1:30 dilution), BTCh substrate, 37 °C
T2 construct: human plasma BChE (Mechnikov Scientific Research Institute of Vaccines and Serums, St. Petersburg, Russia); purchased Mechnikov Scientific Research Institute of Vaccines and Serums, St. Petersburg, Russia; host or cells: human plasma (natural source)
T2 sequence (P06276 29-602): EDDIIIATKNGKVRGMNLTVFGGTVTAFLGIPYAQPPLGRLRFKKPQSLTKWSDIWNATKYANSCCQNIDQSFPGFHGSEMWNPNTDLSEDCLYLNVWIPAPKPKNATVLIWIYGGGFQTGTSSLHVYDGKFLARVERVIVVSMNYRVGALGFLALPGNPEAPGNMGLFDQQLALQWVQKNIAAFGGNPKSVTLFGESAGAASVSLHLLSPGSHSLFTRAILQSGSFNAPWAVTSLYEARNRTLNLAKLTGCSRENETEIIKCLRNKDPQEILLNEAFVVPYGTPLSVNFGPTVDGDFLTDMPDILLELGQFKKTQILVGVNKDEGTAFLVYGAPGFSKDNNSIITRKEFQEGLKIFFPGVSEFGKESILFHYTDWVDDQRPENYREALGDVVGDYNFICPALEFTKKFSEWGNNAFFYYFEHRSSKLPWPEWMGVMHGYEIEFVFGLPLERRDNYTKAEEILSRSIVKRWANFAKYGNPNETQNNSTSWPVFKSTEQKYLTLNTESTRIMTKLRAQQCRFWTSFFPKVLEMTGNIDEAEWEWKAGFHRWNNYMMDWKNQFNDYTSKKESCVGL
Description: as §1, §2, §3

5-HT4R = settings: read-out: EC50 relative to 5-HT4R; cited from earlier work
[1] = human erythrocyte AChE, ATCh substrate, 37 °C, read-out: Ki

Row | SMILES | Ki (human AChE) | AChE inhibition less effective than compound 24 (ratio of Ki) (human AChE; compound 13 vs compound 24) | Type of Inhibition (human AChE) | Type of Inhibition (human BChE) | Ki (human BChE; read-out: Ki) | thermodynamic cooperativity factor α (human AChE) | Ki (human AChE; [1]) | EC50 (5-HT4R) | Ki (human BChE)
1 | CCN(CC)CCNC(=O)n1c(=O)n(C(C)(C)C)c2ccccc21.Cl [Compound 13, N-[2-(diethylamino)ethyl]-2-oxo-3-(tert-butyl)-2,3-dihydro-1H-benzimidazole-1-carboxamide hydrochloride] | 36.1 µM | ~300 times | strictly competitive | non-competitive | 1.7 µM | – | – | – | –
2 | CC(C)n1c(=O)n(C(=O)NC2CC3CCC(C2)N3C)c2ccccc21 (stereo not drawn) [Compound 15, reference compound] | – | – | mixed | competitive | 9.7 µM | 6.6 | 127 µM | 0.018 µM | –
3 | CC(C)n1c(=O)n(C(=O)NC2CC3CCC(C2)N3C)c2cc(C(F)(F)F)ccc21 (stereo not drawn) [Compound 16] | – | – | mixed | competitive | 21.3 µM | 5.1 | 31 µM | – | –
4 | CCN(CC)CCNC(=O)n1c(=O)n(C(C)C)c2ccccc21 [Compound 22] | – | – | strictly competitive | competitive | 15.2 µM | – | 97.1 µM | – | –
5 | CCN(CC)CCNC(=O)n1c(=O)n(C(C)C)c2ccc(C(F)(F)F)cc21 [Compound 23] | – | – | mixed | non-competitive | 4.5 µM | 3.1 | 60.5 µM | – | –
6 | CC(C)n1c(=O)n(C(=O)N2CCN(C(c3ccccc3)c3ccc(Cl)cc3)CC2)c2ccccc21 (stereo not drawn) [Compound 24] | – | – | non-competitive | no inhibition | – | – | 0.13 µM | – | no inhibitory effect; also recorded: did not demonstrate inhibitory properties; also recorded: no inhibition
7 | CCN(CC)CCNC(=O)n1c(=O)n(C2CC2)c2ccccc21 [Compound 27] | – | – | mixed | competitive | 16.2 µM | 10.9 | 132 µM | – | –
8 | CN(C)CCNC(=O)n1c(=O)n(C2CC2)c2ccccc21 [Compound 28] | – | – | mixed | non-competitive | 28.1 µM | 12.6 | 138 µM | – | –
